From US8624034B2, “Fluoro-pyridinone derivatives useful as antibacterial agents” (Pfizer Inc., priority 2011, dated 2014)
In brackets after ≈: the same amount, converted by molar mass.

Tests used:
[1] = test system: Escherichia coli EC-1: VOGEL, mouse virulent; experiment: MIC determination, EC-1; type: cell-based; details: Escherichia coli, read-out: EC-1 (MIC), Table 2, lower of duplicate values
Method in brief: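 Duplicate runs differing by more than 2-fold were repeated, and otherwise the lower MIC was kept. The test organism was E. coli EC-1 (VOGEL, mouse virulent), incubated overnight across 2-fold compound dilutions following CLSI guidelines. The MIC was read visually as the lowest concentration inhibiting growth relative to drug-free control.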

[2] = test system: Pseudomonas aeruginosa UI-18: wild-type (PA-7); experiment: MIC determination, PA-7; type: cell-based; details: Table 2, lower of duplicate values
Method in brief: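 P. aeruginosa UI-18 (wild-type) tested by CLSI broth dilution (M7-A8), 2-fold compound series incubated overnight. MIC read visually as lowest concentration preventing growth versus drug-free control; duplicates within 2-fold, lower value reported, with QC organisms and reference compounds in range.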

[3] = test system: Acinetobacter baumannii/haemolyticus, multidrug-resistant clinical isolate (AB-3167); experiment: MIC determination, AB-3167; type: cell-based; details: Table 2, lower of duplicate values
Method in brief: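 MIC read visually after overnight growth across 2-fold concentration steps in the CLSI dilution method against the multidrug-resistant clinical isolate. Duplicate determinations, lower value reported when within 2-fold, otherwise repeated; every run checked with control organisms and reference drugs.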

[4] = target: T1, Pseudomonas aeruginosa LpxC enzyme (Pseudomonas aeruginosa, UniProt P47205); experiment: IC50 assay, LpxC enzyme from P. aeruginosa (PA LpxC enzyme IC50); type: biochemical; details: Table 2; LpxC enzyme 0.1 nM, 25° C., 1 hour; read-out: PA:IC50
T1 construct: made in house; host or cells: E. coli
T1 sequence (P47205 1-303): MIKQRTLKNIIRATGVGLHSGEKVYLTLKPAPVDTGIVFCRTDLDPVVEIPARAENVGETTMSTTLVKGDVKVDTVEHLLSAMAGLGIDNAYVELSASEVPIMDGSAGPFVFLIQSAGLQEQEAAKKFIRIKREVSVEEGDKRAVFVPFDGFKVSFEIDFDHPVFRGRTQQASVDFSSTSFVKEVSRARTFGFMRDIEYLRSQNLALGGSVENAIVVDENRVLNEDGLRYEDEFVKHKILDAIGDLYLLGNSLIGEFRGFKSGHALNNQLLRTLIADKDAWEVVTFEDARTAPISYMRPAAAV
Method in brief: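 IC50 values came from percent conversion, referenced to a no-enzyme control. Conversion was read by RapidFire HTMS mass spectrometry after HCl quench of the 1 h enzyme reaction.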

SMILES | MIC [1] | MIC [2] | MIC [3] | IC50 [4]
C[C@@](CCn1cc(F)c(-c2ccccc2F)cc1=O)(C(=O)NO)S(C)(=O)=O [Example 4, (2R)-4-[5-Fluoro-4-(2-fluorophenyl)-2-oxopyridin-1(2H)-yl]-N-hydroxy-2-methyl-2-(methylsulfonyl)butanamide] | 2 µg/mL (≈ 4.99 µM) | 0.5 µg/mL (≈ 1.25 µM) | > 64 µg/mL | 0.717 nM
C[C@@](CCn1cc(F)c(-c2ccc(OC[C@H]3CC[C@H](O)CC3)cc2)cc1=O)(C(=O)NO)S(C)(=O)=O [Example 18, (2R)-4-[5-Fluoro-4-{4-[(trans-4-hydroxycyclohexyl)methoxy]phenyl}-2-oxopyridin-1(2H)-yl]-N-hydroxy-2-methyl-2-(methylsulfonyl)butanamide] | 0.125 µg/mL (≈ 0.245 µM) | 1 µg/mL (≈ 1.96 µM) | > 64 µg/mL | 0.463 nM
C[C@@](CCn1cc(F)c(-c2ccc3nccnc3c2)cc1=O)(C(=O)NO)S(C)(=O)=O [Example 24, (2R)-4-(5-Fluoro-2-oxo-4-quinoxalin-6-ylpyridin-1(2H)-yl)-N-hydroxy-2-methyl-2-(methylsulfonyl)butanamide] | 4 µg/mL (≈ 9.21 µM) | 4 µg/mL (≈ 9.21 µM) | > 64 µg/mL | 1.23 nM
